Reference: the supplement of paper PMC10307832

Tests used:
Assay in all cases: relative viability (nuclei count vs DMSO), 5 days (fraction); higher = more cells survive
[1] = compound: CCN(CCO)CCCC(C)Nc1ccnc2cc(Cl)ccc12 [Hydroxychloroquine] + N=C(N)NC(=N)NCCc1ccccc1 [Phenformin] (partner 250 µM)
Outline: (§1)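 Relative viability was taken as the ratio of nuclei in treated wells to nuclei in vehicle wells. Lung cancer cell lines in 1536-well plates received compounds by pin tool one day after seeding, either one drug alone or a fixed anchor-drug dose plus five library-drug doses (not always all listed) in √10 steps. Nuclei were counted on 4× images after 5 days of treatment, and values are medians of duplicate plates.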

[2] = compound: CCN(CCO)CCCC(C)Nc1ccnc2cc(Cl)ccc12 [Hydroxychloroquine] + CC(=O)Nc1cccc(-n2c(=O)n(C3CC3)c(=O)c3c(Nc4ccc(I)cc4F)n(C)c(=O)c(C)c32)c1 [Trametinib] (partner 0.02 µM)
Outline: as §1

[3] = compound: CCN(CCO)CCCC(C)Nc1ccnc2cc(Cl)ccc12 [Hydroxychloroquine] + COc1cccc2cc(-c3nc([C@H]4CC[C@H](C(=O)O)CC4)n4ncnc(N)c34)[nH]c12 [OSI-027] (partner 0.5 µM)
Outline: as §1

Hydroxychloroquine = compound: CCN(CCO)CCCC(C)Nc1ccnc2cc(Cl)ccc12 [Hydroxychloroquine]
Outline: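 Following overnight incubation at 37 °C, lung cancer cell lines in 1536-well plates were pinned with five library-drug doses (not always all listed) in √10 steps on vehicle-anchored plates. The cells then spent 5 days without medium change before a combined fix, permeabilisation and Hoechst stain, 4× imaging and MetaXpress nuclear counts. Viability is the treated-to-vehicle ratio of nuclei, taken as the median across plates. Only plates with control CV below 25% and at least one doubling passed.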

Cell Line	relative viability ([1]; first compound 0.5 µM)	relative viability ([1]; first compound 1.581 µM)	relative viability ([1]; first compound 5 µM)	relative viability ([1]; first compound 15.81 µM)	relative viability ([1]; first compound 50 µM)	relative viability ([2]; first compound 0.5 µM)	relative viability ([2]; first compound 1.581 µM)	relative viability ([2]; first compound 5 µM)	relative viability ([2]; first compound 15.81 µM)	relative viability ([2]; first compound 50 µM)	relative viability ([3]; first compound 0.5 µM)	relative viability ([3]; first compound 1.581 µM)	relative viability ([3]; first compound 5 µM)	relative viability ([3]; first compound 15.81 µM)	relative viability ([3]; first compound 50 µM)	relative viability (Hydroxychloroquine; 0.5 µM)	relative viability (Hydroxychloroquine; 1.581 µM)	relative viability (Hydroxychloroquine; 5 µM)	relative viability (Hydroxychloroquine; 15.81 µM)	relative viability (Hydroxychloroquine; 50 µM)
NCI-H441	0.922	0.726	0.815	0.94	0.944	0.467	0.39	0.386	0.349	0.462	0.749	0.443	0.579	0.669	0.584	1.05	0.926	1.33	1.13	1.03
NCI-H460	0.506	0.533	0.577	0.518	0.635	0.203	0.11	0.119	0.187	0.13	0.621	0.649	0.569	0.672	0.847	0.973	1	1.01	1.03	1.11
NCI-H520	0.539	0.403	0.649	0.683	0.628	0.692	0.658	0.589	0.628	0.844	0.301	0.22	0.285	0.324	0.268	1.07	1.01	0.906	0.923	1.07
NCI-H522	0.647	0.581	0.702	0.717	0.623	0.674	–	0.915	0.65	0.805	0.718	0.671	0.712	0.684	0.682	1.01	0.844	0.95	0.836	0.954
NCI-H596	0.69	0.66	0.784	0.835	0.908	0.652	0.926	0.769	0.797	0.795	0.755	0.672	0.625	0.761	0.883	1.04	0.934	0.892	1.03	1.15
NCI-H647	0.503	0.556	0.441	0.63	0.661	0.474	0.494	0.438	0.497	0.519	0.703	0.737	0.683	0.893	0.607	1	1.07	0.894	0.816	0.975
NCI-H650	0.479	0.438	0.413	0.455	0.473	0.877	0.876	0.965	1.03	0.969	0.566	0.557	0.61	0.555	0.545	1	0.896	0.741	1.04	0.955
NCI-H661	0.275	0.259	0.3	0.243	0.254	0.549	0.522	0.593	0.596	0.577	0.668	0.52	0.629	0.583	0.697	0.966	0.93	0.921	0.976	0.994
NCI-H727	0.514	0.424	0.407	0.618	0.532	0.369	0.361	0.396	0.405	0.382	0.672	0.639	0.796	0.555	0.632	1.04	0.815	1.04	0.898	0.911
NCI-H838	0.636	0.561	0.548	0.595	0.613	0.566	0.458	0.552	0.519	0.606	0.421	0.392	0.37	0.406	0.401	1.02	0.958	0.984	0.975	1.12
NCI-H1355	0.431	0.408	0.457	0.442	0.425	0.374	0.413	0.435	0.376	0.388	0.509	0.301	0.371	0.332	0.44	1.04	0.956	1	0.983	1.05
NCI-H1395	0.465	0.445	0.451	0.456	0.43	1.09	0.972	0.862	1.02	0.949	0.67	0.566	0.639	0.638	0.549	0.887	0.847	0.81	0.83	0.854
NCI-H1437	0.304	0.316	0.31	0.297	0.31	0.543	0.579	0.515	0.459	0.544	0.813	1.02	0.859	0.949	0.909	0.994	1	0.926	0.997	1.04
NCI-H1650	0.473	0.507	0.404	0.402	0.303	0.556	0.681	0.515	0.591	0.494	0.653	0.729	0.634	0.562	0.577	0.956	1.08	0.857	0.806	0.903
NCI-H1651	0.358	0.346	0.297	0.356	0.325	0.832	0.894	0.834	0.864	0.879	0.659	0.69	0.677	0.786	0.781	0.974	0.981	1	1.01	1.1
NCI-H1666	0.601	0.551	0.586	0.562	0.554	0.789	0.786	0.848	0.812	0.794	0.816	0.81	0.834	0.82	0.808	0.986	0.944	1.01	0.966	0.952

Cell Line	relative viability ([1]; first compound 0.5 µM)	relative viability ([1]; first compound 1.581 µM)	relative viability ([1]; first compound 5 µM)	relative viability ([1]; first compound 15.81 µM)	relative viability ([1]; first compound 50 µM)	relative viability ([2]; first compound 0.5 µM)	relative viability ([2]; first compound 1.581 µM)	relative viability ([2]; first compound 5 µM)	relative viability ([2]; first compound 15.81 µM)	relative viability ([2]; first compound 50 µM)	relative viability ([3]; first compound 0.5 µM)	relative viability ([3]; first compound 1.581 µM)	relative viability ([3]; first compound 5 µM)	relative viability ([3]; first compound 15.81 µM)	relative viability ([3]; first compound 50 µM)	relative viability (Hydroxychloroquine; 0.5 µM)	relative viability (Hydroxychloroquine; 1.581 µM)	relative viability (Hydroxychloroquine; 5 µM)	relative viability (Hydroxychloroquine; 15.81 µM)	relative viability (Hydroxychloroquine; 50 µM)
NCI-H1734	0.361	0.42	0.361	0.358	0.405	0.639	0.604	0.645	0.668	0.699	0.555	0.526	0.581	0.606	0.677	0.918	0.869	0.989	0.942	1.02
NCI-H1755	0.628	0.529	0.63	0.636	0.572	0.743	0.729	0.776	0.726	0.732	0.797	0.617	0.628	0.649	0.574	1.05	0.899	0.928	0.99	0.941
NCI-H1792	0.529	0.261	0.258	0.102	0.371	0.496	0.464	0.474	0.387	0.378	0.797	0.729	0.715	1.04	0.825	0.945	1.03	0.859	0.783	0.776
NCI-H1793	0.38	0.325	0.364	0.351	0.36	0.405	0.463	0.475	0.416	0.344	0.334	0.226	0.226	0.234	0.262	1.03	0.791	0.916	0.866	0.998
NCI-H1915	0.347	0.36	0.361	0.383	0.369	0.328	0.251	0.325	0.311	0.306	0.648	0.53	0.599	0.583	0.685	0.961	1.01	0.981	1.01	1.06
NCI-H1944	0.196	0.17	0.193	0.195	0.204	0.398	0.354	0.39	0.403	0.41	0.445	0.33	0.418	0.337	0.453	0.983	0.966	0.925	0.919	0.994
NCI-H1975	0.41	0.37	0.378	0.408	0.396	0.36	0.322	0.341	0.38	0.321	0.846	0.74	0.711	0.868	0.991	0.973	0.977	0.91	1	1.06
NCI-H1993	0.514	0.55	0.475	0.51	0.476	0.525	0.589	0.597	0.551	0.469	0.546	0.563	0.558	0.555	0.541	0.974	0.842	0.939	0.883	1.02
NCI-H2009	0.502	0.475	0.491	0.486	0.469	0.308	0.247	0.328	0.272	0.259	0.632	0.616	0.651	0.658	0.644	0.979	1.04	1.06	0.994	1.07
NCI-H2023	0.423	0.433	0.436	0.4	0.386	0.529	0.492	0.504	0.53	0.503	0.468	0.336	0.402	0.338	0.442	1	1.03	0.941	0.981	1.13
NCI-H2085	0.762	0.509	0.688	0.727	0.692	0.7	0.527	0.619	0.518	0.53	0.788	0.557	0.625	0.693	0.821	1	0.859	0.964	0.977	0.989
NCI-H2087	0.445	0.383	0.486	0.566	0.464	0.202	0.234	0.187	0.193	0.238	0.584	0.375	0.529	0.672	0.78	0.971	0.923	1	1.06	0.98
NCI-H2126	0.528	0.534	0.56	0.521	0.506	0.5	0.516	0.603	0.544	0.55	0.625	0.631	0.763	0.606	0.702	1.02	0.967	0.974	0.992	1.06
NCI-H2170	0.427	0.413	0.435	0.427	0.417	0.867	0.852	0.933	1.05	0.896	0.63	0.776	0.685	0.702	0.806	0.969	1.15	0.992	0.995	1.15
NCI-H2228	0.265	0.342	0.348	0.407	0.292	0.322	0.421	0.654	0.584	0.365	0.617	0.569	0.634	0.548	0.669	1.05	0.959	0.945	1.11	1.08
NCI-H2342	0.59	0.588	0.561	0.619	0.645	0.868	0.923	0.908	0.804	0.881	0.585	0.578	0.613	0.68	0.69	0.986	0.897	0.987	0.991	1.13
